Data as given in publication PMC12775434, “Ultra-large virtual screening unveils potent agonists of the neuromodulatory orphan receptor GPR139” (Nature Communications, 2025).
Several values for one entry are separate records, joined by “and”; a condition that tells them apart may be missing. Equal entries are not always repeated. Where two headings read alike, the source gives them in different places.

Biological target: T1, GPR139 (Homo sapiens, UniProt Q6DWJ6)
T1 sequence (Q6DWJ6 1-353): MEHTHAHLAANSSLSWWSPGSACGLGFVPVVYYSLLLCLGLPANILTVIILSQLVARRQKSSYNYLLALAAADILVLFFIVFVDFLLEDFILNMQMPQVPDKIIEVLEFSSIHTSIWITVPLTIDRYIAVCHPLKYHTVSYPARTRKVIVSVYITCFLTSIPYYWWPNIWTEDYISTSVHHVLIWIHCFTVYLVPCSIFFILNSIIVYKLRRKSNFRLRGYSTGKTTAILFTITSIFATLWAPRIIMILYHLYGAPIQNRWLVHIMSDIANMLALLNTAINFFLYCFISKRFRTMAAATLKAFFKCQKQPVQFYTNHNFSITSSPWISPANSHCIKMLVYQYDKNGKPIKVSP
Assay: Inositol monophosphate (IP1) accumulation assay, GPR139-CHOk1
Type: cell-based
Settings: for EC50: read-out: pEC50 IP1 (converted); for Emax: normalized to Lundbeck Cmp 1a, read-out: Emax (%) IP1
Protocol: Primary screening and pharmacological characterization of compounds were performed using a CHO-K1 cell line that stably expresses human GPR139 (GPR139-CHOk1). The GPR139-CHOk1 cell line was kindly provided by H. Lundbeck A/S, Denmark[24]. GPR139-CHOk1 cells were grown in Ham’s F-12 Kaighn’s Modification Medium (ThermoFisher #21127030) supplemented with 10% dialyzed fetal bovine serum (US origin, ThermoFisher #26400044), 100 units/mL Penicillin-Streptomycin (ThermoFisher #15140122), and 1 mg/mL Geneticin (ThermoFisher #11811031). […] M1R-CHOk1 cells were purchased from The Missouri S&T cDNA Resource Center (#CEM100TN00). M1R-CHOk1 cells were grown in Ham’s F12 Medium (ThermoFisher #21765029) supplemented with 10% fetal bovine serum (Brazilian origin, ThermoFisher #10270106), 100 units/mL Penicillin-Streptomycin, and 0.25 mg/mL Geneticin. HEK293A cells transiently transfected with GPR139 were used for additional pharmacological assessment of signaling pathways activated by GPR139. HEK239A cells were generously provided by Dr. Asuka Inoue, Tohoku University, Japan. HEK293A cells were grown in Dulbecco’s Modified Eagle Medium (ThermoFisher #31966047) supplemented with 10% dialyzed fetal bovine serum and 100 units/mL Penicillin-Streptomycin. Cell lines were maintained at 37 °C in humidified incubator equilibrated with 5% CO2.
HTRF IP-One Gq kit (Cisbio #62IPAPEC) was used to detect the accumulation of inositol monophosphate (IP1) as described in the work by Shehata et al.[26]. GPR139-CHOk1 cells were dissociated and resuspended in HEPES buffer. 50,000 cells in 5 µL and 5 µL test compounds diluted from DMSO stocks (final DMSO concentration of maximally 0.3%) in HEPES buffer supplemented with 40 mM LiCl were mixed in each well of white 384-well OptiPlate (PerkinElmer #6007290). The cells were incubated for 1 h at 37 °C. Then, 10 µL detection reagent composed of 2.5% Eu3 + -anti-IP1 antibody and 2.5% IP1-d2 diluted in lysis buffer was added, and the cells were incubated for 1 h at room temperature before measurements. Measurements were performed on EnVision Multimode Plate Reader (PerkinElmer) using excitation light of 340 nm and emission light of 615 nm and 665 nm. The time resolved-fluorescence resonance energy transfer (TR-FRET) 665 nm/615 nm ratio, which is inversely proportional to the IP1 accumulation, was used to determine the IP1 response.
Pharmacological data and statistical analyses were performed in GraphPad Prism v9–10 (Graphpad Software Inc., San Diego, CA), which are also specifically described in the figure and table legends. The functional assay responses were normalized to buffer (0%) and Lundbeck Cmp 1a or JNJ-63533054 (100%), for Ca^2+ and IP1 experiments in the GPR139-CHOk1 stable cell line or Ca^2+, G protein activation, and arrestin-3 recruitment experiments in the HEK293A cells transiently transfected with GPR139, respectively. Data are from at least three independent experiments, unless stated otherwise. Concentration-response curves were fitted applying non-linear regression using the log (agonist) versus response model with variable slope. ANOVA was applied for comparing results and determining statistical significance. Comparison of responses to the reference was performed using one-way ANOVA with Dunnett’s multiple comparisons test at significance threshold of p < 0.05. Comparison of responses across assays and ligands was performed using two-way ANOVA with Tukey’s multiple comparisons test at a significance threshold of p < 0.05.

[1] = Supplementary Table 2, mean ± SEM
[2] = log [compound] M -4.5, individual replicates
[3] = log [compound] M -5.0, individual replicates
[4] = log [compound] M -5.5, individual replicates
[5] = log [compound] M -6.0, individual replicates
[6] = log [compound] M -6.5, individual replicates
[7] = log [compound] M -7.0, individual replicates
[8] = log [compound] M -7.5, individual replicates
[9] = log [compound] M -8.0, individual replicates

EC50 [1] [nM] | Emax (Supplementary Table 2) [%] | SMILES | IP1 response (% of Cmp 1a) [2] | IP1 response (% of Cmp 1a) [3] | IP1 response (% of Cmp 1a) [4] | IP1 response (% of Cmp 1a) [5] | IP1 response (% of Cmp 1a) [6] | IP1 response (% of Cmp 1a) [7] | IP1 response (% of Cmp 1a) [8] | IP1 response (% of Cmp 1a) [9] | IP1 response (% of Cmp 1a) (log [Compound] M -4.5, replicate experiments) | IP1 response (% of Cmp 1a) (log [Compound] M -5.0, replicate experiments) | IP1 response (% of Cmp 1a) (log [Compound] M -5.5, replicate experiments) | IP1 response (% of Cmp 1a) (log [Compound] M -6.0, replicate experiments) | IP1 response (% of Cmp 1a) (log [Compound] M -6.5, replicate experiments) | IP1 response (% of Cmp 1a) (log [Compound] M -7.0, replicate experiments) | IP1 response (% of Cmp 1a) (log [Compound] M -7.5, replicate experiments) | IP1 response (% of Cmp 1a) (log [Compound] M -8.0, replicate experiments) | EC50 [nM]
1580 | 117 ± 14 | COc1cc(-c2nc(CC(=O)NC(C)c3ccccc3)no2)ccn1 (centres unmarked) [Compound 1.7, COC1=NC=CC(C2=NC(CC(NC(C3=CC=CC=C3)C)=O)=NO2)=C1] | 142 % of Cmp 1a and 109 % of Cmp 1a and 76 % of Cmp 1a and 127 % of Cmp 1a | 138 % of Cmp 1a and 94 % of Cmp 1a and 74 % of Cmp 1a and 127 % of Cmp 1a | 84 % of Cmp 1a and 64 % of Cmp 1a and 60 % of Cmp 1a and 90 % of Cmp 1a | 57 % of Cmp 1a and 49 % of Cmp 1a and 36 % of Cmp 1a and 61 % of Cmp 1a | 27 % of Cmp 1a and 9 % of Cmp 1a and 14 % of Cmp 1a and 24 % of Cmp 1a | 16 % of Cmp 1a and 1.76 % of Cmp 1a and 0.565 % of Cmp 1a and 7 % of Cmp 1a | 8 % of Cmp 1a and -3 % of Cmp 1a and 0.446 % of Cmp 1a and 6 % of Cmp 1a | 7 % of Cmp 1a and -5.45 % of Cmp 1a and -4.55 % of Cmp 1a and 1 % of Cmp 1a |  |  |  |  |  |  |  |  | 
501 | 102 ± 15 | Cc1nocc1-c1nc(CC(=O)NC(C)c2ccccc2)no1 (centres unmarked) [Compound 1.5, CC(C1=CC=CC=C1)NC(CC2=NOC(C3=CON=C3C)=N2)=O] | 120 % of Cmp 1a and 99 % of Cmp 1a and 50 % of Cmp 1a and 106 % of Cmp 1a | 127 % of Cmp 1a and 79 % of Cmp 1a and 71 % of Cmp 1a and 109 % of Cmp 1a | 103 % of Cmp 1a and 63 % of Cmp 1a and 65 % of Cmp 1a and 87 % of Cmp 1a | 75 % of Cmp 1a and 61 % of Cmp 1a and 56 % of Cmp 1a and 68 % of Cmp 1a | 59 % of Cmp 1a and 41 % of Cmp 1a and 29 % of Cmp 1a and 43 % of Cmp 1a | 26 % of Cmp 1a and 25 % of Cmp 1a and 8 % of Cmp 1a and 18 % of Cmp 1a | 22 % of Cmp 1a and 7 % of Cmp 1a and 0.699 % of Cmp 1a and 13 % of Cmp 1a | 12 % of Cmp 1a and -12 % of Cmp 1a and -8.56 % of Cmp 1a and 4.3 % of Cmp 1a |  |  |  |  |  |  |  |  | 
 |  | Cc1noc(CNC(=O)C2(C)CCCCN2C(=O)c2ccccc2)n1 (centres unmarked) [Compound 4, CC1=NOC(CNC(=O)C2(C)CCCCN2C(=O)C=3C=CC=CC3)=N1] |  |  |  |  |  |  |  |  | 109 % of Cmp 1a and 91 % of Cmp 1a and 86 % of Cmp 1a | 40 % of Cmp 1a and 36 % of Cmp 1a and 37 % of Cmp 1a | 13 % of Cmp 1a and 11 % of Cmp 1a and 14 % of Cmp 1a | 6.46 % of Cmp 1a and 2.74 % of Cmp 1a and 2.36 % of Cmp 1a | -0.931 % of Cmp 1a and -1.18 % of Cmp 1a and 0.0496 % of Cmp 1a | 3.23 % of Cmp 1a and -0.893 % of Cmp 1a and -2.41 % of Cmp 1a | 2.42 % of Cmp 1a and -4 % of Cmp 1a and -2.57 % of Cmp 1a | 1.1 % of Cmp 1a and -0.196 % of Cmp 1a and -1.07 % of Cmp 1a | 12600
